For experiment [1], the target named is T1, BRD4 (BDI_K57-E168) (Homo sapiens, UniProt O60885).
T1 construct: BD1: amino acids K57-E168; made in house
In words: TR-FRET bromodomain binding assay, BRD4 first bromodomain. Particulars: His-tagged BD1, 100 nM Alexa647 probe; assay protocol D or F as given per row in c1; Ki calculated from IC50. Here is the method:
(§1) A time-resolved fluorescence resonance energy transfer (TR-FRET) assay was used to determine the affinities of compounds of the Examples listed in Table 1 for each bromodomain of BRD4. His-tagged first (BD1: amino acids K57-E168) and second (BD2: amino acids E352-E168) bromodomains of BRD4 were expressed and purified. An Alexa647-labeled BET-inhibitor was used as the fluorescent probe in the assay.
(§2) Compound dilution series were prepared in DMSO via an approximately 3-fold serial dilution from one of the following:
(§3) Assay method D: 500 μM-8.5 nM
(§4) Assay method E: 0.47 mM to 7.8 nM
(§5) Assay method F: 250 μM-4.2 nM
(§6) Assay method G: 0.047 mM to 0.78 nM
(§7) or 5-fold serial dilution from one of the following:
(§8) Assay method A: 2.5 mM-800 nM
(§9) Assay method B: 2.5 mM-797 nM
(§10) For Assay methods A, C, D, and F: Compounds were then diluted 6:100 in assay buffer (20 mM Sodium Phosphate, pH 6.0, 50 mM NaCl, 1 mM Ethylenediaminetetraacetic acid, 0.01% Triton X-100, 1 mM DL-Dithiothreitol) to yield 3× working solutions. Six microliters (μL) of the working solution was then transferred to white, low-volume assay plates (Costar #3673). A 1.5× assay mixture containing His-tagged bromodomain, Europium-conjugated anti-His antibody (Invitrogen PV5596) and the Alexa-647-conjugated probe molecule was also prepared. Twelve μL of this solution were added to the assay plate to reach a final volume of 18 μL.
(§11) For Assay methods B, E, and G: Compound dilutions were added directly into white, low-volume assay plates (Perkin Elmer Proxiplate 384 Plus#6008280) using a Labcyte Echo in conjunction with Labcyte Access and Thermo Multidrop CombinL robotics. Compounds were then suspended in eight microliters (μL) of assay buffer (20 mM Sodium Phosphate, pH 6.0, 50 mM NaCl, 1 mM Ethylenediaminetetraacetic acid disodium salt dihydrate, 0.01% Triton X-100, 1 mM DL-Dithiothreitol) containing His-tagged bromodomain, Europium-conjugated anti-His antibody (Invitrogen PV5596) and Alexa-647-conjugated probe.
(§12) The final concentration of 1× assay mixture for assay methods A, B, C, D, E, F, and G contains 2% DMSO, 8 nM His-tagged bromodomain, 1 nM Europium-conjugated anti-His-tag antibody and 100 nM or 30 nM probe (for BDI or BDII, respectively) and compound concentration in the range of: 50 μM-16 nM for method A, 49.02 μM-15.63 nM for method B, 25 μM-423 pM for method C, 10 μM-169 pM for method D, 9.19 μM 150 pM for method E, 5 μM-85 pM for method F, and 0.92 μM-15 pM for method G.
(§13) After a one-hour equilibration at room temperature, TR-FRET ratios were determined using an Envision multilabel plate reader (Ex 340, Em 495/520).
(§14) TR-FRET data were normalized to the means of 24 no-compound controls (“high”) and 8 controls containing 1 μM un-labeled probe (“low”). Percent inhibition was plotted as a function of compound concentration and the data were fit with the 4 parameter logistic equation to obtain IC50s Inhibition constants (Ki) were calculated from the IC50s, probe Kd and probe concentration. Typical Z′ values were between 0.65 and 0.75. The minimum significant ratio was determined to evaluate assay reproducibility (Eastwood et al., (2006) J Biomol Screen, 11: 253-261). The MSR was determined to be 2.03 for BDI and 1.93 for BDII, and a moving MSR (last six run MSR overtime) for both BDI and BDII was typically <3.

Experiment [2] has as its target T2, BRD4 (BDII_E352-M457) (Homo sapiens, UniProt O60885).
T2 construct: protocol; made in house
In words: TR-FRET bromodomain binding assay, BRD4 second bromodomain. As for the experimental part:
as §1, §2, §3, §4, §5, §6, §7, §8, §9, §10, §11, §12, §13, §14

The subject of experiment [3] is breast cancer cell line MX-1. In words: MX-1 cell line proliferation assay. It is filed as cell-based. Particulars: Homo sapiens, MX1; MX-1 cells, 3-day (72 h) proliferation, Cell Titer Glo; read-out: Cellular proliferation: EC50. Here is the method:
MX-1 Cell Line Proliferation Assay
The impact of compounds of the Examples on cancer cell proliferation was determined using the breast cancer cell line MX-1 (ATCC) in a 3-day proliferation assay and the data are reported in Table 1. MX-1 cells were maintained in RPMI 1640 medium (Sigma) supplemented with 10% FBS at 37 C.° and an atmosphere of 5% CO2. For compound testing, MX-1 cells were plated in 96-well black bottom plates at a density of 5000 cells/well in 90 μL of culture media and incubated at 37° overnight to allow cell adhesion and spreading. Compound dilution series were prepared in DMSO via a 3-fold serial dilution from 3 mM to 0.1 μM. The DMSO dilution series were then diluted 1:100 in phosphate buffered saline, and 10 μL of the resulted solution were added to the appropriate wells of the MX-1 cell plate. The final compound concentrations in the wells were 3, 1, 0.3, 0.1, 0.03, 0.01, 0.003, 0.001, 0.0003 and 0.0001 μM.
Luminescence readings from the Cell Titer Glo assay were normalized to the DMSO treated cells and analyzed using the GraphPad Prism software with sigmoidal curve fitting to obtain EC50s. The minimum significant ratio (MSR) was determined to evaluate assay reproducibility (Eastwood et al., (2006) J Biomol Screen, 11: 253-261). The overall MSR was determined to be 2.1 and a moving MSR (last six run MSR overtime) has been <2.

The subject of experiment [4] is LPS induced IL-6 production. In words: LPS (lipopolysaccharide) induced IL-6 production mouse assay. It is filed as in vivo, mice. Particulars: CD1 female mice, 3 mg/kg oral 1 h before LPS 2.5 mg/kg ip, serum IL-6 2 h after LPS; p<0.05. As for the experimental part: LPS (Lipopolysaccharide) Induced IL-6 Production Mouse Assay
Compounds of the Examples listed in Table 2 were assayed for their ability to inhibit LPS (lipopolysaccharide) induced IL-6 (Interleukin-6) production in mice. Fox Chase SCID® female mice (Charles Rivers Labs, 5 per group) or CD1 female mice (5 mice per group) received an intraperitoneal challenge of lipopolysaccharide (2.5 mg/kg, L2630 E. coli 0111:B4) one hour after oral administration of compounds. Mice were euthanized 2 hours after lipopolysaccharide injection, blood was removed by cardiac puncture, and then the serum harvested from the blood samples was frozen at −80° C. On the day of the assay the serum samples were brought to room temperature and then diluted 1:20 in phosphate-buffered saline containing 2% bovine serum albumin. Interleukin-6 measurements were performed using a cytokine assay from Meso Scale Discovery (Gaithersburg, Md.) for mouse serum analysis according to the manufacturer's protocol and read on a SECTOR Imager 6000 (Meso Scale Discovery, Gaithersburg, Md.) instrument. Statistical analysis was performed using Prism software (version 5.0) incorporating Dunnett's one way ANOVA. The IL-6 mean and standard deviation of the group of vehicle treated animals were compared with the IL-6 mean and standard deviation of the group treated with drug. A p value <0.05 means that there is less than a 5% probability that the mean values in the two groups are equal.

Here are results for 19 molecules from patent publication US8980879B2 (AbbVie Inc., priority 2013, dated 2015).

Molecules are shown by their SMILES.

The term Ki denotes a dissociation constant, usually derived from enzyme kinetics or from competition with a known ligand. A word on the % inhibition: it is the relative decrease from the control value, in per cent. High values mean a response far below the control, low ones a response near the control. As to `CN1CCN(CC(=O)Nc2ccc3c(c2)-c2cn(C)c4c(=O)[nH]cc(c24)CN3c2ccc(F)cc2)CC1` [Example 36], the values for the Ki in experiment [1] and in experiment [2] were 1.34 nM and 23.2 nM, respectively. For the same molecule, the EC50 in experiment [3] was 16.8 nM. Moreover, the “% inhibition at 3 mg/kg (LPS induced IL-6 production)” value in experiment [4] is 68%.
For the molecule `Cn1cc2c3c(c[nH]c(=O)c31)CN(c1ccc(F)cc1)c1ccc(C(=O)NCc3cc(F)ccc3Cl)cc1-2` [Example 60], the Ki in experiment [1] was 3.2 nM; in experiment [2] it was 46.1 nM. In addition, the EC50 in experiment [3] was 75.5 nM.
Consider `Cn1cc2c3c(c[nH]c(=O)c31)CN(c1ccc(F)cc1)c1ccc(C(=O)NCc3cnn(Cc4ccccc4)c3)cc1-2` [Example 62], for which the Ki in experiment [1] was 1.62 nM; in experiment [2], 33.1 nM. For the same molecule, in experiment [3], the EC50 was found to be 65.6 nM.
Consider `Cn1cc2c3c(c[nH]c(=O)c31)CN(c1ccc(F)cc1)c1ccc(C(=O)NCc3ccccc3)cc1-2` [Example 63], for which the Ki in experiment [1] is 1.98 nM; in experiment [2], 22 nM. Moreover, in experiment [3], the EC50 was 49.9 nM.
In the case of `COc1ccc(F)cc1CC(=O)Nc1ccc2c(c1)-c1cn(C)c3c(=O)[nH]cc(c13)CN2c1ccc(F)cc1` [Example 65], the Ki in experiment [1] was 3.92 nM; in experiment [2] it was 44.9 nM. Further, in experiment [3], the EC50 worked out at 55.5 nM.
On the same counts, the results for `Cn1cc2c3c(c[nH]c(=O)c31)CN(c1ccc(F)cc1)c1ccc(NC(=O)Cc3cc(F)ccc3[N+](=O)[O-])cc1-2` [Example 66] are 2.14 nM, 30.1 nM and 44.6 nM.
The corresponding values for `CCS(=O)(=O)Nc1cnc2c(c1)-c1cn(C)c3c(=O)[nH]cc(c13)CN2c1ccc(F)cc1F` [Example 68] are 1.26 nM, 1.79 nM and 17.5 nM.
As for `Cn1cc2c3c(c[nH]c(=O)c31)CN(c1ccc(Cl)cc1)c1ncc(N)cc1-2` [Example 69], the Ki in experiment [1] was 0.78 nM; in experiment [2], 1.89 nM. The EC50 in experiment [3] is 4.4 nM.
As for `CCS(=O)(=O)Nc1cnc2c(c1)-c1cn(C)c3c(=O)[nH]cc(c13)CN2c1ccc(Cl)cc1` [Example 70], the Ki was 0.79 nM in experiment [1] and 0.708 nM in experiment [2]. In experiment [3], the EC50 is 24.4 nM.
With `Cn1cc2c3c(c[nH]c(=O)c31)CN(c1ccc(Cl)cc1)c1ncc(NS(C)(=O)=O)cc1-2` [Example 71], the Ki was 1.65 nM in experiment [1] and 2.21 nM in experiment [2]. Also, the EC50 in experiment [3] was determined as 35.6 nM.
For the molecule `CC(=O)Nc1cnc2c(c1)-c1cn(C)c3c(=O)[nH]cc(c13)CN2c1ccc(Cl)cc1` [Example 72], the Ki in experiment [1] is 2.56 nM; in experiment [2] it was 4.41 nM. Moreover, the EC50 in experiment [3] was 10.1 nM. Besides, in experiment [4], the “% inhibition at 3 mg/kg (LPS induced IL-6 production)” value amounted to 63%.
On to `CCS(=O)(=O)Nc1ccc2c(c1)-c1cn(C)c3c(=O)[nH]cc(c13)CN2C1CCN(C(C)=O)CC1` [Example 74], for which the results for the Ki in experiment [1] and in experiment [2] were 3.61 nM and 17 nM, respectively. Further, in experiment [3], the EC50 was more than 1000 nM.
On the same counts, the results for `CC(=O)N1CCC(N2Cc3c[nH]c(=O)c4c3c(cn4C)-c3cc(NC(=O)Cc4cnc(C)s4)ccc32)CC1` [Example 75] are 2.54 nM, 54.6 nM and more than 1000 nM.
The corresponding values for `CC(=O)N1CCC(N2Cc3c[nH]c(=O)c4c3c(cn4C)-c3cc(NC(=O)Cc4cc(F)ccc4Cl)ccc32)CC1` [Example 76] are 3.46 nM, 17.5 nM and 332 nM.
With `CC(=O)Nc1ccc2c(c1)-c1cn(C)c3c(=O)[nH]cc(c13)CN2C1CCN(C(C)=O)CC1` [Example 77], the figures for the Ki in experiment [1] and in experiment [2] were 4.6 nM and 112 nM, respectively. The EC50 in experiment [3] was more than 1000 nM.
With `Cn1cc2c3c(c[nH]c(=O)c31)CN(c1ccc(F)cc1F)c1c-2cc(CS(C)(=O)=O)cc1C1CC1` [Example 78], the Ki in experiment [1] is 1.29 nM; in experiment [2], 0.85 nM. Moreover, the EC50 in experiment [3] was determined as 6.28 nM.
The corresponding values for `Cn1cc2c3c(c[nH]c(=O)c31)CN(C1CCN(C(=O)OC(C)(C)C)CC1)c1ccc(CS(C)(=O)=O)cc1-2` [Example 80] are 3.04 nM, 14.5 nM and 106 nM.
For the molecule `COC(=O)N1Cc2c[nH]c(=O)c3c2c(cn3C)-c2cc(CS(C)(=O)=O)ccc21` [Example 81], the Ki in experiment [1] is 4.97 nM; in experiment [2] it was 11.1 nM. Further, the EC50 in experiment [3] came to 77.9 nM.
On the same counts, the results for `CCS(=O)(=O)Nc1ccc2c(c1)-c1cn(C)c3c(=O)[nH]cc(c13)CN2c1ccccn1` [Example 82] are 0.83 nM, 1.47 nM and 4.93 nM.
